Data as given in patent publication US20230322770A1, “SUBSTITUTED HETEROARYL COMPOUNDS USEFUL AS INHIBITORS OF TLR9” (BRISTOL-MYERS SQUIBB COMPANY, priority 2020, published 2023).

Assays:
Type in all cases: cell-based
[1] = molecular target: T1, human TLR9 (Homo sapiens, UniProt Q9NR96); assay: TLR9 inhibition reporter assay (HEK-Blue cells, SEAP reporter); settings: HEK-Blue cells overexpressing human TLR9; stimulated with ODN2006 5 nM; SEAP after 22 hour incubation
T1 construct: host or cells: HEK-Blue cells (HEK293-derived reporter line)
T1 sequence (Q9NR96 26-1032): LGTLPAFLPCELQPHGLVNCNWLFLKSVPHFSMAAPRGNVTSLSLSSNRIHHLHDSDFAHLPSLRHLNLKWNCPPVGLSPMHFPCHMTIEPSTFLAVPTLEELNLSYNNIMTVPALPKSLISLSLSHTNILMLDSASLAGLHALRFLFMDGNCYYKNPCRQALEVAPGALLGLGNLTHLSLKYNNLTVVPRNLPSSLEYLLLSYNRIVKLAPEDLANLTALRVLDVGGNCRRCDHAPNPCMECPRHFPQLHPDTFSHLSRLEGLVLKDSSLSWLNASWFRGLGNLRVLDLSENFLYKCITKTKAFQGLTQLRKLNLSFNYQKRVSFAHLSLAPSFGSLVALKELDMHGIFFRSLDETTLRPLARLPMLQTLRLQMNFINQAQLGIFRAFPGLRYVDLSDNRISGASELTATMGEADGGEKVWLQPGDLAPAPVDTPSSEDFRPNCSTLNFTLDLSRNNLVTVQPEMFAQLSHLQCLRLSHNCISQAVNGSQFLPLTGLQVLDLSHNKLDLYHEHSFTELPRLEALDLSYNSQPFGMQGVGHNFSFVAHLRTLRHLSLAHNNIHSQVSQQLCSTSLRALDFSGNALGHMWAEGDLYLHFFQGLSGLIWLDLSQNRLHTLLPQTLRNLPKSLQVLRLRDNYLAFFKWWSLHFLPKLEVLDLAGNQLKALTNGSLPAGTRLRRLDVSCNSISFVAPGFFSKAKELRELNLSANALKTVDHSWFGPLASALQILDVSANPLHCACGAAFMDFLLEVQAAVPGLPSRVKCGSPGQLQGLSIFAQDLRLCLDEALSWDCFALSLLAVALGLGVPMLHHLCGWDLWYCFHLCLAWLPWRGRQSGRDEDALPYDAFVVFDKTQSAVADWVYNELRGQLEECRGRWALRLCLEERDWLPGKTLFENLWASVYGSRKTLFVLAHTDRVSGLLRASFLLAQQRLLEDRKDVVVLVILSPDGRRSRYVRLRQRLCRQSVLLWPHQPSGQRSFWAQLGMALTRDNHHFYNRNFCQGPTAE
Experimental: (§1) TLR7/8/9 Inhibition Reporter Assays
(§2) HEK-Blue™-cells (Invivogen) overexpressing human TLR7, TLR8 or TLR9 receptors were used for screening inhibitors of these receptors using an inducible SEAP (secreted embryonic alkaline phosphatase) reporter gene under the control of the IFN-β minimal promoter fused to five NF-κB and AP-1-binding sites. Briefly, cells are seeded into Greiner 384 well plates (15000 cells per well for TLR7, 20,000 for TLR8 and 25,000 for TLR9) and then treated with test compounds in DMSO to yield a final dose response concentration range of 0.05 nM-50 μM. After a 30 minute compound pre-treatment at room temperature, the cells are then stimulated with a TLR7 ligand (gardiquimod at a final concentration of 7.5 μM), TLR8 ligand (R848 at a final concentration of 15.9 μM) or TLR9 ligand (ODN2006 at a final concentration of 5 nM) to activate NF-κB and AP-1 which induce the production of SEAP. After a 22 hour incubation at 37° C., 5% CO2, SEAP levels are determined with the addition of HEK-Blue™ Detection reagent (Invivogen), a cell culture medium that allows for detection of SEAP, according to manufacturer's specifications. The percent inhibition is determined as the % reduction in the HEK-Blue signal present in wells treated with agonist plus DMSO alone compared to wells treated with a known inhibitor.

[2] = molecular target: T2, human TLR7 (Homo sapiens, UniProt Q9NYK1); assay: TLR7 inhibition reporter assay (HEK-Blue cells, SEAP reporter); settings: HEK-Blue cells overexpressing human TLR7; stimulated with gardiquimod 7.5 μM; SEAP after 22 hour incubation
T2 construct: host or cells: HEK-Blue cells (HEK293-derived reporter line)
T2 sequence (Q9NYK1 27-1049): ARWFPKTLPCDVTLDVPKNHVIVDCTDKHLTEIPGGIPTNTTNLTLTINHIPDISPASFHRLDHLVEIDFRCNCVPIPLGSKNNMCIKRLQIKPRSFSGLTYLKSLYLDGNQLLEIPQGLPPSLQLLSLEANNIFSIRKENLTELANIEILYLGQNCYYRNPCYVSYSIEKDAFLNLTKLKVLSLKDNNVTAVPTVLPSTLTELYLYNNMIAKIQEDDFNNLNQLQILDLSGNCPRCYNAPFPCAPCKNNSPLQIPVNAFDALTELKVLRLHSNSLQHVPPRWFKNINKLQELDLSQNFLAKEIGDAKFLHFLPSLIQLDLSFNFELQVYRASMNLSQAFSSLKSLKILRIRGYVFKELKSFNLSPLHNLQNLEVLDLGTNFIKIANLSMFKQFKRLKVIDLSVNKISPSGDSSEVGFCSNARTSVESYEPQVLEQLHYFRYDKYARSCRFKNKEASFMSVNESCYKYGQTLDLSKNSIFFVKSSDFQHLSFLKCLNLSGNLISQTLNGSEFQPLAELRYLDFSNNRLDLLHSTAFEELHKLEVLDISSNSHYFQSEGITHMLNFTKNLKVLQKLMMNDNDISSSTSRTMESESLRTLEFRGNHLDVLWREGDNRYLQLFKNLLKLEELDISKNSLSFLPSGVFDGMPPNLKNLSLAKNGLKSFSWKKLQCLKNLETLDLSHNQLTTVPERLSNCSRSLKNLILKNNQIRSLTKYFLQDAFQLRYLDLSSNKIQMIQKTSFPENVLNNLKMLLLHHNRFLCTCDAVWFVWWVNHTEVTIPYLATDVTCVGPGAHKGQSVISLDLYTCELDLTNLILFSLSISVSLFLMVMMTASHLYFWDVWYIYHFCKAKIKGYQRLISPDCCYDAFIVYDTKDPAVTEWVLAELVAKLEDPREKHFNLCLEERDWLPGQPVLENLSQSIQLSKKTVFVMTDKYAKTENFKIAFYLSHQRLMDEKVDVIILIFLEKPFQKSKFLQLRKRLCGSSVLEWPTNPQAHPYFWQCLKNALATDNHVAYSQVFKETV
Experimental: as §1, §2

[3] = molecular target: T3, human TLR8 (Homo sapiens, UniProt Q9NR97); assay: TLR8 inhibition reporter assay (HEK-Blue cells, SEAP reporter); settings: HEK-Blue cells overexpressing human TLR8; stimulated with R848 15.9 μM; SEAP after 22 hour incubation
T3 construct: host or cells: HEK-Blue cells (HEK293-derived reporter line)
T3 sequence (Q9NR97 27-1041): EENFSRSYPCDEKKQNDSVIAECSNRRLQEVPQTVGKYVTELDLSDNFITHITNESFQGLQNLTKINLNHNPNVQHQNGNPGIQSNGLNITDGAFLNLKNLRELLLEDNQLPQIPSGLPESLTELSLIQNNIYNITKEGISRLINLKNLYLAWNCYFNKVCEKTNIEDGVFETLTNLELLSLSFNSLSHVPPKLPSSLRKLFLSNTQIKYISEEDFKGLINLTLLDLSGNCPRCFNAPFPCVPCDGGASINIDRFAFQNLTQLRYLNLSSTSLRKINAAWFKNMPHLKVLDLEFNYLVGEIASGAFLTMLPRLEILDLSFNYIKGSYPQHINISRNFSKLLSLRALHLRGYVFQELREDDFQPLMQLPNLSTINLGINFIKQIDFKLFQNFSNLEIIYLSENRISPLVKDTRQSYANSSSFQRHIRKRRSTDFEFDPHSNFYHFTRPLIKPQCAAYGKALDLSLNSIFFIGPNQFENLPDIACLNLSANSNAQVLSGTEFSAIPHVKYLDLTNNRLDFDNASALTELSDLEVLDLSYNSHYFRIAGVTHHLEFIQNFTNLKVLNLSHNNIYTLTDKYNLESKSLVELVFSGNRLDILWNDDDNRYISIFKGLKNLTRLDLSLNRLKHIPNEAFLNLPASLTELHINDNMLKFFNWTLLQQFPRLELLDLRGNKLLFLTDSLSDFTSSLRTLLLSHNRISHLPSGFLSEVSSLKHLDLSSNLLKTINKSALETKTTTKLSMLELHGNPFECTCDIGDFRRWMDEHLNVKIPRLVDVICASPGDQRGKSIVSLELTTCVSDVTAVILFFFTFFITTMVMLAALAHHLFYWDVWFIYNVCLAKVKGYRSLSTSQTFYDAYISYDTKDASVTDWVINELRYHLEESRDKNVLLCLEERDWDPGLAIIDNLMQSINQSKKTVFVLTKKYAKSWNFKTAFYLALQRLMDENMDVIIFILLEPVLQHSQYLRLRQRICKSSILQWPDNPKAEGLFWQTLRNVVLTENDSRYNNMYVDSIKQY
Experimental: as §1, §2

| Structure (SMILES) | IC50 [1] | IC50 [2] | IC50 [3] |
| --- | --- | --- | --- |
| CC(C)N1C[C@@H](C)N(c2ccc(-c3cnc4cc(-c5ccc(S(C)(=O)=O)cc5)n(C)c4c3)cc2)[C@@H](C)C1 [Example 33] | 383 nM | 3.8 µM | 4.2 µM |
| CC(C)N1[C@H](C)CN(c2ccc(-c3cnc4cc(-c5ccc(S(C)(=O)=O)cc5)n(C)c4c3)cc2)C[C@@H]1C [Example 34] | 244 nM | > 50 µM | > 50 µM |
| CC(C)CN1[C@@H]2CC[C@H]1CC(N1CCC(c3cnc4cc(-c5ccc(S(C)(=O)=O)cc5)n(C)c4c3)CC1)C2 (stereo partly drawn) [Example 36] | 22 nM | 10.5 µM | > 50 µM |
| CC(C)CN1[C@@H]2CC[C@H]1C[C@@H](N1CCC(c3cnc4cc(-c5ccc(S(=O)(=O)C6CC6)cc5)n(C)c4c3)CC1)C2 [Example 37, 2-(4-cyclopropylsulfonylphenyl)-1-methyl-6-[1-[rac-(1S,5R)-8-isobutyl-8-azabicyclo[3.2.1]octan-3-yl]-4-piperidyl]pyrrolo[3,2-b]pyridine] | 410 nM | 1.1 µM | > 50 µM |
| COc1cc(-c2cc3ncc(-c4ccc(N5CCN(C(C)C)CC5)cc4)cc3n2C)ccc1C#N [Example 38, 4-[6-[4-(4-isopropylpiperazin-1-yl)phenyl]-1-methyl-pyrrolo[3,2-b]pyridin-2-yl]-2-methoxy-benzonitrile] | 505 nM | > 25 µM | > 25 µM |
| COc1ccc(-c2cc3ncc(-c4ccc(N5CCN(C(C)C)CC5)cc4)cc3n2C)cc1C#N [Example 39] | 101 nM | > 25 µM | > 25 µM |
| CC(C)N1CCN(c2ccc(-c3cnc4cc(-c5cccc(S(=O)(=O)N(C)C)c5)n(C)c4c3)cc2)CC1 [Example 40] | 76 nM | 8.1 µM | 2.1 µM |
| CC(C)N1CCN(c2ccc(-c3cnc4cc(-c5ccc(S(C)(=O)=O)cc5F)n(C)c4c3)cc2)CC1 [Example 41] | 157 nM | 10 µM | 1.6 µM |
| Cn1c(-c2ccc(S(C)(=O)=O)cc2F)cc2ncc(-c3ccc(N4CCN5CCCC5C4)cc3)cc21 (stereo not drawn) [Example 42] | 436 nM | > 50 µM | 2.8 µM |
| CC(C)N1C2CCC1CN(c1ccc(-c3cnc4cc(-c5ccc(S(C)(=O)=O)cc5F)n(C)c4c3)cc1)C2 [Example 43] | 292 nM | > 50 µM | 7.8 µM |
